Read-outs that look alike come from different tables or passages of the source.
Biological target: T1, mAChR M4 (Homo sapiens, UniProt P08173)
T1 construct: expressed in transfected cells; host or cells: CHO-K1 cells stably transfected with M4 cDNA and chimeric G-protein Gqi5
T1 sequence (P08173 1-479): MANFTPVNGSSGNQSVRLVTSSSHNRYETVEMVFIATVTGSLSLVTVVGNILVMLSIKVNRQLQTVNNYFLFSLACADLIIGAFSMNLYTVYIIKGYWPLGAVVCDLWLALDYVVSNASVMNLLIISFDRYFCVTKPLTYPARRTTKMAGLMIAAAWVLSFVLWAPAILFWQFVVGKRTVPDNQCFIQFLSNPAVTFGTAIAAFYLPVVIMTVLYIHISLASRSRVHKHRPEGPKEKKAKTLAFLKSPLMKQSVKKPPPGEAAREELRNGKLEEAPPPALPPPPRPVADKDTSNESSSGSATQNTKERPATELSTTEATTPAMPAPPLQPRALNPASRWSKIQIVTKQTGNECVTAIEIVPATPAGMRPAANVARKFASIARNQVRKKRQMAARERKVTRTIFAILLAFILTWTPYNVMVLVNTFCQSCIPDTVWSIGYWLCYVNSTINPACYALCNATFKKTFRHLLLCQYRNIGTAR
Experiment: mAChR M4 cell-based functional assay (calcium mobilization, potentiation of EC20 acetylcholine response)
Conditions: for Emax at 30 µM: % ACh maximum at 30 μM

[1] = mAChR M4 cell-based functional assay, >10,000 estimated for low potency compounds without plateau, read-out: EC50

Emax at 30 µM | EC50 [1] | SMILES | EC50 (EC50 (nM))
97% | 170 nM | Cc1nnc2sc(C(=O)NCc3ccccc3)c(N)c2c1C [Example B9] | 
49% | 2800 nM | COC1(c2ccc(Cl)cc2)CN(C(=O)c2sc3nnc(C)c(C)c3c2N)C1 [Example B314] | 
69% | 13 nM | COc1ccc(OC(=O)N2CC(NC(=O)c3sc4nnc(C)c(C)c4c3N)C2)cc1 [Example B334] | 
79% | 97 nM | Cc1nnc2sc(C(=O)NC3CN(C(=O)c4ccc5ccccc5c4)C3)c(N)c2c1C [Example B130] | 
75% | 160 nM | Cc1nnc2sc(C(=O)N3CC(c4ccccc4)C3)c(N)c2c1C [Example B116] | 
79% | 580 nM | Cc1ccc(S(=O)(=O)N2CCC(NC(=O)c3sc4nnc(C)c(C)c4c3N)C2)cc1 (centres unmarked) [Example B244] | 
77% | 530 nM | CCCCCC(=O)N1CCC(NC(=O)c2sc3nnc(C)c(C)c3c2N)C1 (centres unmarked) [Example B232] | 
61% | 89 nM | Cc1nnc2sc(C(=O)NCc3ccc(-c4ccc5[nH]ncc5c4C)cc3)c(N)c2c1C [Example B473] | 
71% | 26 nM | Cc1nnc2sc(C(=O)NC3CN(C(=O)Nc4ccc(C(C)C)cc4)C3)c(N)c2c1C [Example B349] | 
73% | 35 nM | Cc1nnc2sc(C(=O)NCc3ccc(S(=O)(=O)C(F)F)c(Cl)c3)c(N)c2c1C [Example B489] | 
72% | 54 nM | Cc1nnc2sc(C(=O)NC3CN(C(=O)Oc4ccc(C(C)C)cc4)C3)c(N)c2c1C [Example B348] | 
79% | 190 nM | Cc1nnc2sc(C(=O)NCc3ccc4c(cnn4C)c3)c(N)c2c1C [Example B251] | 
68% | 310 nM | Cc1nnc2sc(C(=O)NC3CCN(S(=O)(=O)c4ccccc4OC(F)(F)F)C3)c(N)c2c1C (centres unmarked) [Example B209] | 
56% | 120 nM | Cc1nnc2sc(C(=O)NCc3ccc(C#N)cc3)c(N)c2c1C [Example B431] | 
57% | 9.5 nM | Cc1nnc2sc(C(=O)NC3CN(C(=O)Oc4ccccc4)C3)c(N)c2c1C [Example B151] | 
46% | 3300 nM | Cc1nnc2sc(C(=O)N3CC4(C3)CN(C(=O)C3CCCC3)C4)c(N)c2c1C [Example B402] | 
64% | 5000 nM | Cc1nnc2sc(C(=O)N3CCC(NC(=O)c4ccncc4)C3)c(N)c2c1C (centres unmarked) [Example B204] | 
50% | > 10000 nM | Cc1nnc2sc(C(=O)NC3CCN(C(=O)OC(C)C)C3)c(N)c2c1C (centres unmarked) [Example B222] | 
74% | > 10000 nM | Cc1nnc2sc(C(=O)NCc3ccc(OC(F)F)cn3)c(N)c2c1C [Example B480] | 
63% | 14 nM | Cc1nnc2sc(C(=O)N[C@H]3CCN(c4ccccc4)C3)c(N)c2c1C [Example B193] | 
73% | 1200 nM | Cc1nnc2sc(C(=O)NC3CCN(S(=O)(=O)c4ccc(OC(F)(F)F)cc4)C3)c(N)c2c1C (centres unmarked) [Example B245] | 

Emax at 30 µM | EC50 [1] | SMILES | EC50 (EC50 (nM))
48% | > 10000 nM | Cc1nnc2sc(C(=O)N3CC[C@H](F)C3)c(N)c2c1C [Example B69] | 
51% | > 10000 nM | Cc1nnc2sc(C(=O)NCCNS(C)(=O)=O)c(N)c2c1C [Example B352] | 
76% | 38 nM | Cc1nnc2sc(C(=O)NCc3ccc(CN4CCCC4)cc3)c(N)c2c1C [Example B492] | 
71% | 69 nM | Cc1nnc2sc(C(=O)NCc3ccc(N(C)C)cc3)c(N)c2c1C [Example B449] | 
73% | 23 nM | Cc1nnc2sc(C(=O)NCc3ccc(OCC(F)F)cc3)c(N)c2c1C [Example B176] | 
61% | 230 nM | COc1ccc(-c2ccc(CNC(=O)c3sc4nnc(C)c(C)c4c3N)cc2)cn1 [Example B486] | 
68% | 130 nM | Cc1nnc2sc(C(=O)NCc3ccc(N4CCCC4=O)cc3)c(N)c2c1C [Example B238] | 
76% | 28 nM | Cc1nnc2sc(C(=O)NCc3ccc(-c4cccs4)cc3)c(N)c2c1C [Example B460] | 
71% | 45 nM | Cc1nnc2sc(C(=O)NCc3cc(F)c(F)cc3F)c(N)c2c1C [Example B45] | 
47% | 1100 nM | Cc1nnc2sc(C(=O)N3CC4(C3)CN(S(=O)(=O)c3ccccc3)C4)c(N)c2c1C [Example B394] | 
68% | 32 nM | [2H]C([2H])(NC(=O)c1sc2nnc(C)c(C)c2c1N)c1ccc(OC)cc1 [Example B37] | 
89% | 500 nM | Cc1nnc2sc(C(=O)NCC3CC3)c(N)c2c1C [Example B6] | 
62% | 290 nM | COc1ncc(CNC(=O)c2sc3nnc(C)c(C)c3c2N)cn1 [Example B399] | 
58% | 7.9 nM | Cc1cccc(OC(=O)N2CC(NC(=O)c3sc4nnc(C)c(C)c4c3N)C2)c1 [Example B365] | 
73% | 300 nM | COc1ccc([C@@H]2C[C@H]2NC(=O)c2sc3nnc(C)c(C)c3c2N)cc1 (single isomer, unassigned) [Example B32] | 
70% | 150 nM | Cc1nnc2sc(C(=O)NCc3ccc(-n4cccn4)cc3)c(N)c2c1C [Example B506] | 
88% | 70 nM | Cc1nnc2sc(C(=O)NC3CN(C(=O)Cc4cccs4)C3)c(N)c2c1C [Example B154] | 
45% | 440 nM | COc1ccc(C2(OC)CN(C(=O)c3sc4nnc(C)c(C)c4c3N)C2)cc1 [Example B290] | 
52% | > 10000 nM | COCCOCCNC(=O)c1sc2nnc(C)c(C)c2c1N [Example B199] | 
69% | 12 nM | COc1cccc(OC(=O)N2CC(NC(=O)c3sc4nnc(C)c(C)c4c3N)C2)c1 [Example B368] | 
67% | 12 nM | Cc1nnc2sc(C(=O)NC3CN(c4cccnc4)C3)c(N)c2c1C [Example B479] | 

Emax at 30 µM | EC50 [1] | SMILES | EC50 (EC50 (nM))
100% | 320 nM | Cc1nnc2sc(C(=O)NCc3ccncc3)c(N)c2c1C [Example B14] | 
70% | 220 nM | Cc1nnc2sc(C(=O)NC3CCN(c4ccncc4)C3)c(N)c2c1C (centres unmarked) [Example B266] | 
76% | 14 nM | COc1ccc(C2CC2NC(=O)c2sc3nnc(C)c(C)c3c2N)cc1 (centres unmarked) [Example B30] | 
55% | 490 nM | CS(=O)(=O)c1ccc(CNC(=O)c2sc3nnc(Cl)cc3c2N)cc1 [Example B76] | 
66% | 19 nM | Cc1nnc2sc(C(=O)NCc3ccc(S(=O)(=O)CF)cc3)c(N)c2c1C [Example B132] | 
66% | 340 nM | Cc1nnc2sc(C(=O)NCc3ccc(C#N)c(F)c3)c(N)c2c1C [Example B451] | 
54% | > 10000 nM | Cc1nnc2sc(C(=O)NCCN3CCOCC3)c(N)c2c1C [Example B28] | 
66% | 310 nM | Cc1nnc2sc(C(=O)N3CC4CN(c5cccc(F)n5)CC4C3)c(N)c2c1C (centres unmarked) [Example B442] | 
69% | 120 nM | Cc1nnc2sc(C(=O)NCc3ccc(C(F)(F)F)nc3)c(N)c2c1C [Example B443] | 
56% | > 10000 nM | Cc1nnc2sc(C(=O)N3CCC(NC(=O)N4CCOCC4)C3)c(N)c2c1C (centres unmarked) [Example B201] | 
47% | 490 nM | Cc1ccc(S(=O)(=O)NC2CN(C(=O)c3sc4nnc(C)c(C)c4c3N)C2)cc1 [Example B183] | 
84% | 23 nM | Cc1nnc2sc(C(=O)NCc3ccc(-c4ccnc(F)c4)cc3)c(N)c2c1C [Example B461] | 
64% | 240 nM | CS(=O)(=O)c1ccc(CNC(=O)c2sc3nnc4c(c3c2N)CCCC4)cc1 [Example B58] | 
77% | 350 nM | Cc1nnc2sc(C(=O)NC3CCN(C(=O)c4ccc(F)cc4)C3)c(N)c2c1C (centres unmarked) [Example B219] | 
66% | 63 nM | Cc1ccc(S(=O)(=O)N2CC(NC(=O)c3sc4nnc(C)c(C)c4c3N)C2)s1 [Example B98] | 
92% | 85 nM | Cc1nnc2sc(C(=O)NC3CN(S(=O)(=O)c4ccc5ncccc5c4)C3)c(N)c2c1C [Example B141] | 
99% | 250 nM | COc1ccc(CNC(=O)c2sc3nnc(C)c(C)c3c2N)cc1 [Example B16] | 
53% | 620 nM | Cc1nnc2sc(C(=O)NC3CCN(c4cccnc4)C3)c(N)c2c1C (centres unmarked) [Example B261] | 
55% | > 10000 nM | COC1CCN(C(=O)c2sc3nnc(C)c(C)c3c2N)C1 (centres unmarked) [Example B272] | 
75% | 19 nM | Cc1nnc2sc(C(=O)NCc3ccc(-c4ccncc4)cc3)c(N)c2c1C [Example B457] | 
51% | > 10000 nM | Cc1nnc2sc(C(=O)N3CC(NS(C)(=O)=O)C3)c(N)c2c1C [Example B172] | 

SMILES | Emax at 30 µM | EC50 [1] | EC50 (EC50 (nM))
Cc1nnc2sc(C(=O)NCc3ccc(S(F)(F)(F)(F)F)cc3)c(N)c2c1C [Example B297] | 76% |  | 30 nM

Reference: patent US9868746B2, “Substituted 5-aminothieno[2,3-C]pyridazine-6-carboxamide analogs as positive allosteric modulators of the muscarinic acetylcholine receptor M4” (Vanderbilt University, priority 2012, dated 2018)
